Laboratory results reported in PubChem BioAssay (NCI).
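Five compound concentrations were applied to cells in 96-well plates for 48 hours; endpoints were derived by simple linear interpolation of the resulting dose-response curve. GI50: concentration for 50% inhibition of growth. At the TGI there is no net growth.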

Columns and labels:
Test in all cases: growth of human tumour cells (NCI), 48 h
[1] = tested on: 786-0 renal
[2] = tested on: A498 renal
[3] = tested on: A549 NSCLC
[4] = tested on: ACHN renal
[5] = tested on: BT-549 breast
[6] = tested on: CAKI-1 renal
[7] = tested on: CCRF-CEM leukemia
[8] = tested on: COLO 205 colon
[9] = tested on: DU-145 prostate
[10] = tested on: EKVX NSCLC
[11] = tested on: HCC-2998 colon
[12] = tested on: HCT-116 colon
[13] = tested on: HCT-15 colon
[14] = tested on: HL-60(TB) leukemia
[15] = tested on: HOP-62 NSCLC
[16] = tested on: HOP-92 NSCLC
[17] = tested on: HS 578T breast
[18] = tested on: HT29 colon
[19] = tested on: IGROV1 ovarian
[20] = tested on: K-562 leukemia
[21] = tested on: KM12 colon
[22] = tested on: LOX IMVI melanoma
[23] = tested on: M14 melanoma
[24] = tested on: MALME-3M melanoma
[25] = tested on: MCF7 breast
[26] = tested on: MDA-MB-231 breast
[27] = tested on: MDA-MB-435
[28] = tested on: MOLT-4 leukemia
[29] = tested on: NCI-H226 lung
[30] = tested on: NCI-H23 lung
[31] = tested on: NCI-H460 lung
[32] = tested on: NCI-H522 lung
[33] = tested on: NCI/ADR-RES ovarian
[34] = tested on: OVCAR-3 ovarian
[35] = tested on: OVCAR-4 ovarian
[36] = tested on: OVCAR-5 ovarian
[37] = tested on: OVCAR-8 ovarian
[38] = tested on: PC-3 prostate
[39] = tested on: RPMI-8226 leukemia
[40] = tested on: RXF 393 renal
[41] = tested on: SF-268 CNS
[42] = tested on: SF-295 CNS
[43] = tested on: SF-539 CNS
[44] = tested on: SK-MEL-2 melanoma
[45] = tested on: SK-MEL-28 melanoma
[46] = tested on: SK-MEL-5 melanoma
[47] = tested on: SK-OV-3 ovarian
[48] = tested on: SN12C renal
[49] = tested on: SNB-19 CNS
[50] = tested on: SNB-75 CNS
[51] = tested on: SW-620 colon
[52] = tested on: T-47D breast
[53] = tested on: TK-10 renal
[54] = tested on: U251 CNS
[55] = tested on: UACC-257 melanoma
[56] = tested on: UACC-62 melanoma
[57] = tested on: UO-31 renal
[58] = tested on: SR leukemia

Compound `COc1cc2c(cc1OC)C(=O)/C(=C/c1cccc(OCC(=O)c3ccccc3)c1)C2` has a GI50 [1] of 35.5 µM, a TGI [1] greater than 100 µM and a GI50 [2] of 21.7 µM. For the same compound, the TGI [2] was greater than 100 µM, the GI50 [3] was 26.6 µM and the TGI [3] was greater than 100 µM. The GI50 [4] was 26.7 µM, the TGI [4] was greater than 100 µM and the GI50 [5] was 24.9 µM. The TGI [5] was greater than 100 µM, the GI50 [6] was 12.7 µM and the TGI [6] was 79.3 µM. It also gave a GI50 [7] of 2.17 µM, a TGI [7] of 7.31 µM and a GI50 [8] of 28 µM. The TGI [8] was greater than 100 µM, the GI50 [9] was 11.3 µM and the TGI [9] was greater than 100 µM. The GI50 [10] was 33.5 µM, the TGI [10] was greater than 100 µM and the GI50 [11] was 73.1 µM. It also gave a TGI [11] greater than 100 µM, a GI50 [12] of 5.44 µM and a TGI [12] greater than 100 µM. The GI50 [13] was 9.3 µM, the TGI [13] was greater than 100 µM and the GI50 [14] was 6.44 µM. For the same compound, the TGI [14] was 61.8 µM, the GI50 [15] was 35.8 µM and the TGI [15] was greater than 100 µM. The GI50 [16] was 0.569 µM, the TGI [16] was 27.8 µM and the GI50 [17] was 13.1 µM. For the same compound, the TGI [17] was 75.2 µM, the GI50 [18] was 12.9 µM and the TGI [18] was greater than 100 µM. It also gave a GI50 [19] of 5.79 µM, a TGI [19] greater than 100 µM and a GI50 [20] of 3.11 µM. It also gave a TGI [20] greater than 100 µM, a GI50 [21] of 7.79 µM and a TGI [21] greater than 100 µM. The GI50 [22] was 18.3 µM, the TGI [22] was greater than 100 µM and the GI50 [23] was 34.2 µM. It also gave a TGI [23] greater than 100 µM, a GI50 [24] of 25.1 µM and a TGI [24] greater than 100 µM. The GI50 [25] was 5.83 µM, the TGI [25] was greater than 100 µM and the GI50 [26] was 23.8 µM. The TGI [26] was greater than 100 µM, the GI50 [27] was 23.1 µM and the TGI [27] was greater than 100 µM. The GI50 [28] was 2.58 µM, the TGI [28] was 14 µM and the GI50 [29] was 20.2 µM. The TGI [29] was greater than 100 µM, the GI50 [30] was 22.3 µM and the TGI [30] was greater than 100 µM. For the same compound, the GI50 [31] was 13.3 µM, the TGI [31] was 91.9 µM and the GI50 [32] was 4.6 µM. For the same compound, the TGI [32] was 50.5 µM, the GI50 [33] was 6.93 µM and the TGI [33] was greater than 100 µM. The GI50 [34] was 17.1 µM, the TGI [34] was greater than 100 µM and the GI50 [35] was 30.4 µM. It also gave a TGI [35] greater than 100 µM, a GI50 [36] of 73.9 µM and a TGI [36] greater than 100 µM. It also gave a GI50 [37] of 5.04 µM, a TGI [37] greater than 100 µM and a GI50 [38] of 5.11 µM. The TGI [38] was greater than 100 µM, the GI50 [39] was 1.4 µM and the TGI [39] was 3.9 µM. It also gave a GI50 [40] of 35.4 µM, a TGI [40] greater than 100 µM and a GI50 [41] of 15.3 µM. It also gave a TGI [41] of 63.3 µM, a GI50 [42] of 5.06 µM and a TGI [42] of 40.8 µM. The GI50 [43] was 16.2 µM, the TGI [43] was 63.9 µM and the GI50 [44] was 10.2 µM. The TGI [44] was greater than 100 µM, the GI50 [45] was 58.4 µM and the TGI [45] was greater than 100 µM. It also gave a GI50 [46] of 4.24 µM, a TGI [46] greater than 100 µM and a GI50 [47] of 99.2 µM. It also gave a TGI [47] greater than 100 µM, a GI50 [48] of 23.8 µM and a TGI [48] greater than 100 µM. It also gave a GI50 [49] of 25.7 µM, a TGI [49] greater than 100 µM and a GI50 [50] of 12 µM. For the same compound, the TGI [50] was 37.8 µM, the GI50 [51] was 38.3 µM and the TGI [51] was greater than 100 µM. It also gave a GI50 [52] of 4.34 µM, a TGI [52] of 68.8 µM and a GI50 [53] of 57.8 µM. It also gave a TGI [53] greater than 100 µM, a GI50 [54] of 8.17 µM and a TGI [54] greater than 100 µM. The GI50 [55] was 49.1 µM, the TGI [55] was greater than 100 µM and the GI50 [56] was 8.07 µM. The TGI [56] was 90.8 µM, the GI50 [57] was 6.93 µM and the TGI [57] was greater than 100 µM.

With `CCOC(=O)c1ccc(NC(=O)N2CC(C)OC(C)C2)cc1` (stereo not given) the GI50 [1] was greater than 100 µM, the TGI [1] was greater than 100 µM and the GI50 [2] was greater than 100 µM. It also gave a TGI [2] greater than 100 µM, a GI50 [3] greater than 100 µM and a TGI [3] greater than 100 µM. For the same compound, the GI50 [4] was greater than 100 µM, the TGI [4] was greater than 100 µM and the GI50 [5] was greater than 100 µM. It also gave a TGI [5] greater than 100 µM, a GI50 [6] greater than 100 µM and a TGI [6] greater than 100 µM. It also gave a GI50 [7] greater than 100 µM, a TGI [7] greater than 100 µM and a GI50 [8] greater than 100 µM. For the same compound, the TGI [8] was greater than 100 µM, the GI50 [9] was greater than 100 µM and the TGI [9] was greater than 100 µM. For the same compound, the GI50 [10] was greater than 100 µM, the TGI [10] was greater than 100 µM and the GI50 [11] was greater than 100 µM. For the same compound, the TGI [11] was greater than 100 µM, the GI50 [12] was greater than 100 µM and the TGI [12] was greater than 100 µM. It also gave a GI50 [13] greater than 100 µM, a TGI [13] greater than 100 µM and a GI50 [14] greater than 100 µM. The TGI [14] was greater than 100 µM, the GI50 [15] was greater than 100 µM and the TGI [15] was greater than 100 µM. For the same compound, the GI50 [16] was greater than 100 µM, the TGI [16] was greater than 100 µM and the GI50 [17] was greater than 100 µM. It also gave a TGI [17] greater than 100 µM, a GI50 [18] greater than 100 µM and a TGI [18] greater than 100 µM. For the same compound, the GI50 [19] was greater than 100 µM, the TGI [19] was greater than 100 µM and the GI50 [20] was greater than 100 µM. For the same compound, the TGI [20] was greater than 100 µM, the GI50 [21] was greater than 100 µM and the TGI [21] was greater than 100 µM. The GI50 [22] was greater than 100 µM, the TGI [22] was greater than 100 µM and the GI50 [23] was greater than 100 µM. It also gave a TGI [23] greater than 100 µM, a GI50 [24] greater than 100 µM and a TGI [24] greater than 100 µM. For the same compound, the GI50 [25] was greater than 100 µM, the TGI [25] was greater than 100 µM and the GI50 [26] was greater than 100 µM. For the same compound, the TGI [26] was greater than 100 µM, the GI50 [27] was greater than 100 µM and the TGI [27] was greater than 100 µM. It also gave a GI50 [28] greater than 100 µM, a TGI [28] greater than 100 µM and a GI50 [29] greater than 100 µM. The TGI [29] was greater than 100 µM, the GI50 [30] was greater than 100 µM and the TGI [30] was greater than 100 µM. For the same compound, the GI50 [31] was greater than 100 µM, the TGI [31] was greater than 100 µM and the GI50 [32] was greater than 100 µM. The TGI [32] was greater than 100 µM, the GI50 [33] was greater than 100 µM and the TGI [33] was greater than 100 µM. It also gave a GI50 [34] greater than 100 µM, a TGI [34] greater than 100 µM and a GI50 [35] greater than 100 µM. For the same compound, the TGI [35] was greater than 100 µM, the GI50 [36] was greater than 100 µM and the TGI [36] was greater than 100 µM. For the same compound, the GI50 [37] was greater than 100 µM, the TGI [37] was greater than 100 µM and the GI50 [38] was greater than 100 µM. For the same compound, the TGI [38] was greater than 100 µM, the GI50 [39] was greater than 100 µM and the TGI [39] was greater than 100 µM. For the same compound, the GI50 [40] was greater than 100 µM, the TGI [40] was greater than 100 µM and the GI50 [41] was greater than 100 µM. It also gave a TGI [41] greater than 100 µM, a GI50 [42] greater than 100 µM and a TGI [42] greater than 100 µM. For the same compound, the GI50 [43] was greater than 100 µM, the TGI [43] was greater than 100 µM and the GI50 [44] was greater than 100 µM. For the same compound, the TGI [44] was greater than 100 µM, the GI50 [45] was greater than 100 µM and the TGI [45] was greater than 100 µM. It also gave a GI50 [46] greater than 100 µM, a TGI [46] greater than 100 µM and a GI50 [47] greater than 100 µM. For the same compound, the TGI [47] was greater than 100 µM, the GI50 [48] was greater than 100 µM and the TGI [48] was greater than 100 µM. The GI50 [49] was greater than 100 µM, the TGI [49] was greater than 100 µM and the GI50 [50] was greater than 100 µM. The TGI [50] was greater than 100 µM, the GI50 [58] was greater than 100 µM and the TGI [58] was greater than 100 µM. It also gave a GI50 [51] greater than 100 µM, a TGI [51] greater than 100 µM and a GI50 [52] greater than 100 µM. For the same compound, the TGI [52] was greater than 100 µM, the GI50 [53] was greater than 100 µM and the TGI [53] was greater than 100 µM. The GI50 [54] was greater than 100 µM, the TGI [54] was greater than 100 µM and the GI50 [55] was greater than 100 µM. It also gave a TGI [55] greater than 100 µM, a GI50 [56] greater than 100 µM and a TGI [56] greater than 100 µM. For the same compound, the GI50 [57] was greater than 100 µM and the TGI [57] was greater than 100 µM.
